The values below come from US20240058455A1, “BIOORTHOGONAL LINKERS AND REACTIONS” (The General Hospital Corporation, priority 2020, published 2024).

Where a SMILES comes first, the peptide text is derived from it.

The nature of data set [1]: Stability of C2TCO in full cell growth media, titration with DMT. The class given is in vitro ADME. Particulars: full cell growth media (10% FBS), 37° C., up to 48 h. The source says: C2TCO can be incorporated into probes that bind to intracellular targets.
Data set [2] in a line: Endpoint cleavage of AF594-C2TCO-AF594 with tetrazines (HPLC, fluorescence detection). Particulars: 15 + excess tetrazine, buffered solution pH 7.4, endpoint 24 h. On the procedure:
As an initial assessment of cleavage efficiency, 15 was reacted with an excess of selected tetrazines in buffered solution at pH 7.4 and analyzed the reaction mixtures at an endpoint of 24 h by HPLC with fluorescence detection. […] One hypothesis is that this is not only due to slow tautomerization, but also limited elimination of the respective B1/B2 intermediate. The inability to achieve complete release with Pyr2Tz highlights the advantages of a cleavage directing group.
Release measurements with AF594-C2TCO-AF594: Analytical stock solutions and buffers. 10 mM stock solutions of the release probe AF594-C2TCO-AF594 was prepared and further diluted with citrate-phosphate buffer (as indicated below), so that the final concentration of DMSO in buffer was never higher than 2%. Tetrazine stock solutions were prepared in DMSO at concentrations ranging from 10-100 mM and diluted with citrate-phosphate buffer (as indicated below), so that the final concentration of DMSO in buffer was never higher than 2%. […]
Endpoint measurements with AF594-C2TCO-AF594. […] The released AF594-amine was detected using an RF-20Axs fluorescence detector and confirmed by a LCMS-2020 mass spectrometer (ESI) implemented in the Nexera X2® UHPLC system.

For data set [3] the following is noted: in vivo; cited from earlier work.
Data set [4] is described as follows: Second order rate constants of tetrazines with PEGylated rTCO 6. The settings on record: reaction with PEGylated rTCO 6.
The nature of data set [5]: Release from rTCO-AlexaFluor 350 conjugate monitored by LCMS. Particulars: Tz 200 μM, 7 125 μM, pH 7, 25° C.; PyrMe within ~8 hours, PyrPA initial fast phase. On the procedure:
Similar to the previous study (Carlson et al.), an rTCO-AlexaFluor 350 conjugate was used (7, FIG. 5) to further investigate the release step. Reactions were carried out in buffered aqueous solution at pH 7 and 25° C., selecting concentrations of PyrMe or PyrPA (200 μM) and 7 (125 μM) such that the click reaction was done in less than 4 minutes, allowing temporal monitoring of post-click reactions by LCMS. With PyrMe, slow monophasic release was observed that reached a yield of approximately 50% within ˜8 hours. […] To verify these hypotheses, PyrMe was reacted with rTCO-glycine, the release reaction was allowed to proceed to completion, and the non-releasing isomer was then isolated. […] This key finding is in line with the observations of Sarris et al., who achieved approx. 80% release with PymK (3) and invoked the preferred formation of the releasing adduct with the ethylammonium moiety in head-to-head position. (due to pre-click interaction of NH3^+ with the carbamate functionality of the leaving group) to explain this increased conversion.

With `OC1/C=C/C(O)CCCC1` (stereo not drawn) [C2TCO, anti-cyclooct-2-ene-1,4-diol], the “stability (intact C2TCO)” value in data set [1] is on record as more than 97%. On to `Cc1nnc(C)nn1` [DMT], for which the cleavage entry in data set [2] is listed as “Nearly complete cleavage”.

`N=C(N)NCCCC[C@@H]1NC(=O)CCSSC[C@@H](C(N)=O)NC(=O)[C@@H]2CCCN2C(=O)[C@H](Cc2c[nH]c3ccccc23)NC(=O)[C@H](CC(=O)O)NC(=O)CNC1=O` [Eptifibatide] (HELM PEPTIDE1{[O=C(CCS[*:3])[*:2]].[N=C(N)NCCCC[C@H](N[*:1])C(=O)[*:2]].G.D.W.P.C.[am]}$PEPTIDE1,PEPTIDE1,1:R3-7:R3$$$V2.0): the half-life (in general, the time needed for the level to fall by half in the phase considered) in data set [3] is 3 to 4 h.

As for `c1ccc(-c2nnc(-c3ccccn3)nn2)nc1` [Pyr2Tz, 3,6-bis(2-pyridyl)tetrazine], the cleavage in data set [2] worked out at 23%. With `Cc1nnc(-c2ccccn2)nn1` [PyrMe], the “rate enhancement vs. DMT” value in data set [4] was “up to 12 fold”. Also, the release yield result in data set [5] is listed as “approximately 50%”.

On to `O=C(O)CCc1nnc(-c2ccccn2)nn1` [PyrPA], for which the release yield entry in data set [5] was “very similar release yield”. Consider alteplase: widely-used tPA thrombolytic, for which the “clearance t1/2” value in data set [3] is “about 5 min”.
